US10039282B2, “Six-membered C—N-bonded aryl sulphide and aryl sulphoxide derivatives as pesticides” (BAYER CROPSCIENCE AKTIENGESELLSCHAFT, priority 2013, dated 2018)
Read-outs that look alike come from different tables or passages of the source.

Assays:
[1] = log P by reversed-phase HPLC analogously to OECD Guideline 117; format: physicochemical; conditions: reversed-phase C18 HPLC column
Protocol: The log P values were determined analogously to OECD Guideline 117 (EC Directive 92/69/EEC) by HPLC (high-performance liquid chromatography) using reversed-phase columns (C 18), by the following methods:
[a] The LC-MS determination in the acidic range is effected at pH 2.7 with 0.1% aqueous formic acid and acetonitrile (contains 0.1% formic acid) as eluents; linear gradient from 10% acetonitrile to 95% acetonitrile. log P^[…] is also referred to as log P(HCOOH). [b] LC-MS determination in the neutral range is effected at pH 7.8 with 0.001 molar aqueous ammonium hydrogencarbonate solution and acetonitrile as eluents; linear gradient from 10% acetonitrile to 95% acetonitrile. log P^[…] is also referred to as log P(neutral).
Calibration is effected with solutions of a homologous series of unbranched alkan-2-ones (having 3 to 16 carbon atoms) with known log P values (log P values determined on the basis of the retention times by linear interpolation between two successive alkanones).

Phaedon cochleariae [2] = experiment: whole plant or invertebrate; format: in vivo; conditions: 168 h
Protocol: 1. Phaedon cochleariae—Spray Test (PHAECO)
(§1) Solvent: 78.0 parts by weight of acetone
(§2) • 1.5 parts by weight of dimethylformamide Emulsifier: alkylaryl polyglycol ether
(§3) To produce an appropriate active compound formulation, 1 part by weight of active compound is dissolved using the specified parts by weight of solvent and made up with water containing an emulsifier concentration of 1000 ppm until the desired concentration is attained. To produce further test concentrations, the preparation is diluted with emulsifier-containing water.
(§4) Discs of Chinese cabbage leaves (Brassica pekinensis) are sprayed with an active compound formulation of the desired concentration and, after drying, populated with larvae of the mustard beetle (Phaedon cochleariae).
After the desired period of time, the effect in % is determined. 100% means that all the beetle larvae have been killed; 0% means that no beetle larvae have been killed.

Phaedon cochleariae [3] = experiment: Phaedon cochleariae spray test; format: in vivo; conditions: 500 g/ha, after 7 days
Protocol: 3. Phaedon cochleariae—Spray Test
Solvent: 78.0 parts by weight of acetone • • 1.5 parts by weight of dimethylformamide Emulsifier: alkylaryl polyglycol ether
as §3, §4
After 7 days, the efficacy in % is determined 100% means that all the beetle larvae have been killed; 0% means that no beetle larvae have been killed.

Tetranychus urticae = Tetranychus urticae spray test, OP-resistant (bean leaf discs); format: in vivo; conditions: 500 g/ha, after 6 days
Protocol: 4. Tetranychus urticae—Spray Test, OP-Resistant
as §1, §2
To produce further test concentrations, the preparation is diluted with emulsifier-containing water.
After 6 days, the efficacy in % is determined. 100% means that all the spider mites have been killed; 0% means that none of the spider mites have been killed.

Meloidogyne incognita = Meloidogyne incognita test (soil drench, gall formation after 21 days); format: in vivo; conditions: 8 ppm
Protocol: 5. Meloidogyne incognita Test
Solvent: 7 parts by weight of dimethylformamide
Emulsifier: 2.5 parts by weight of alkylaryl poly glycol ether
To produce an appropriate active compound formulation, 1 part by weight of active compound is mixed with the stated amounts of solvent and emulsifier, and the concentrate is diluted with water to the desired concentration, it being necessary to include the volume of soil which is drenched in the calculation. It should be ensured that a concentration of 20 ppm of emulsifier in the soil is not exceeded. To produce further test concentrations, water is used for dilution.
Pots filled with soil (loamy sand) are watered with the active compound solution. An egg/larvae suspension of the southern root-knot nematode (Meloidogyne incognita) is added, lettuce seeds are scattered over the surface of the soil, and they are covered over with quartz sand. The lettuce seeds germinate and the plants develop. The galls develop on the roots.
After 21 days, the nematicidal efficacy in % is determined by the formation of galls. 100% means that no galls have been found; 0% means that the number of galls on the treated plants corresponds to the untreated control.

Boophilus microplus = Boophilus microplus injection test; format: in vivo; conditions: 20 μg/animal, assessed after 7 days
Protocol: 1. Boophilus microplus—Injection Test
Solvent: dimethyl sulphoxide
To produce an appropriate active compound formulation, 10 mg of active compound are mixed with 0.5 ml of solvent and the concentrate is diluted with solvent to the desired concentration.
1 μl of the active compound solution is injected into the abdomen of 5 engorged adult female cattle ticks (Boophilus microplus). The animals are transferred into dishes and kept in a climate-controlled room.
The efficacy is assessed after 7 days by laying of fertile eggs. Eggs which are not visibly fertile are stored in a climate-controlled cabinet until the larvae hatch after about 42 days. An efficacy of 100% means that none of the ticks has laid any fertile eggs; 0% means that all the eggs are fertile.

For Cc1cc(F)c(-n2cnc(C(F)(F)F)cc2=O)cc1[S+]([O-])CC(F)(F)F (stereo not shown) [Example 2, 3-{2-Fluoro-4-methyl-5-[(2,2,2-trifluoroethyl)sulphinyl]phenyl}-6-(trifluoromethyl)pyrimidin-4(3H)-one], the chromatographic logP ([1]; acidic range, pH 2.7, 0.1% aqueous formic acid/acetonitrile, read-out: logP (HCOOH)) was 2.4, the chromatographic logP ([1]; neutral range, pH 7.8, 0.001 molar aqueous ammonium hydrogencarbonate/acetonitrile, read-out: logP (neutral)) was 2.38 and the mortality at 500 g/ha (Phaedon cochleariae [2]) was 100%. For the same compound, the “efficacy (beetle larvae killed)” value (Phaedon cochleariae [3]) was 100%, the “efficacy (spider mites killed)” value (Tetranychus urticae) was 100% and the “nematicidal efficacy (formation of galls)” value (Meloidogyne incognita) was 85%. The “efficacy (no fertile eggs laid)” value (Boophilus microplus) was 100%.
